# Assay results as given in US20260207585A1, “METHODS AND COMPOSITIONS FOR THE TREATMENT OF PARKINSON'S DISEASE, HUNTINGTON'S DISEASE, AMYOTROPHIC LATERAL SCLEROSIS, AND LEARNING DISORDERS” (Cedars-Sinai Medical Center, priority 2022, published 2026).
# Read-outs that look alike come from different tables or passages of the source.
# What was measured:
# SET8 = target: T1, SET8 (Homo sapiens, UniProt Q9NQR1); assay: Methyltransferase inhibition panel: SET8; type: biochemical
# T1 sequence (Q9NQR1 1-393): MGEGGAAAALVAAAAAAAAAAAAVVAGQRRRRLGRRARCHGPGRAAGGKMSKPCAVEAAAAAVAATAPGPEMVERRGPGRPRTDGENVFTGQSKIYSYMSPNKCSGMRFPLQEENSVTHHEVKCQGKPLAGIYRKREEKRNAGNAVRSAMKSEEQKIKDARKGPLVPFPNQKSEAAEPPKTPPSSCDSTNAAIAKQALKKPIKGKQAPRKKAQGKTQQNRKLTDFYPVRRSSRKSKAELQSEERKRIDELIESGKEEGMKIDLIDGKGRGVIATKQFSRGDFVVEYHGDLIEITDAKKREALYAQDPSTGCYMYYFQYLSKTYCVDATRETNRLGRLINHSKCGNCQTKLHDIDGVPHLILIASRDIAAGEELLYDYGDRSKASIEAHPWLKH
# Experimental: (§1) The ability of ETP69 to inhibit methyltransferases was tested.
# PRMT4 = PRMT4 (Homo sapiens, UniProt Q86X55); assay: Methyltransferase inhibition panel: PRMT4; type: biochemical
# Sequence of PRMT4 (Q86X55 whole entry): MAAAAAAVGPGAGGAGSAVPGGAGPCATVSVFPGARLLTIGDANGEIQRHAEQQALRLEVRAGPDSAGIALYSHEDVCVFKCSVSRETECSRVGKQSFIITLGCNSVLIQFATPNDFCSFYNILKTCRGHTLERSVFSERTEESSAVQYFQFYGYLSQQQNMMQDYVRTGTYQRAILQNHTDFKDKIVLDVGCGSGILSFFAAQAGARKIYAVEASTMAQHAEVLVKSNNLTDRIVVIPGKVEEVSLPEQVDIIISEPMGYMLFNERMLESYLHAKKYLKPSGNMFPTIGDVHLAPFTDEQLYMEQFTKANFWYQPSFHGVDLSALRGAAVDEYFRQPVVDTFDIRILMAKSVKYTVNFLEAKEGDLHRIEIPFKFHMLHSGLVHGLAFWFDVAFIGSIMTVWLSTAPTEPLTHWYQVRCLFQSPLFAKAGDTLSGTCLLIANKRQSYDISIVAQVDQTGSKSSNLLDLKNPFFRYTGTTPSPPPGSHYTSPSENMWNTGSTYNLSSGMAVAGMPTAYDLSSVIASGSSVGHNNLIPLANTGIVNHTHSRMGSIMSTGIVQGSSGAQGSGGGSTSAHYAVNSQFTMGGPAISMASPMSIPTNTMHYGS
# Experimental: as §1
# dendritic spines = assay: Golgi-Cox staining of brain, dendritic spine quantification; type: in vivo, mice
# Description: The brain of 18-month old mice was stained with the Golgi-Cox method to detect the cytoarchitecture and morphology of neurons. FIG. 1A depicts representative images of the cingulate cortex (cc) of mice administered DMSO or ETP69. FIG. 1B depicts a representative hippocampus. FIG. 1C depicts a representative neuron from a DMSO treated and ETP69 treated hippocampus. FIG. 1D is a schematic of the quantification of neuronal spines.
# The brains were stained with the Golgi-Cox method to detect the cytoarchitecture and morphology of neurons. Representative images are shown of mice treated with DMSO (FIG. 10A-10C) and ETP69 (FIG. 10D-10F). The number of dendritic spines are quantified. […] Further, ETP69 administration reduced epigenetic H3K9me3 repression mark in cell-specific manners. H3K9 expression was reduced in neurons (FIGS. 11A-11B), astrocytes (FIGS. 11C-11D), and microglia macrophages (FIGS. 11E-11F).
# Loss of synapses and dendritic spine abnormalities are associated with cognitive decline. To analyze these features in old mice administered ETP69, Golgi-Cox neuronal staining and synaptic marker staining was performed in cerebral cortices and hippocampi. Dendritic spines were classified as thin (filopodia-like and long-thin), stubby, or mushroom spines according to their size and shape, and quantified the spine density from high-magnification photographs.
# EZH2 Complex = EZH2 Complex (Homo sapiens, UniProt Q15910); assay: Methyltransferase inhibition panel: EZH2 Complex; type: biochemical; conditions: NT1721 20 μM; substrate Core Histone 0.05 mg/mL
# Sequence of EZH2 Complex (Q15910 whole entry): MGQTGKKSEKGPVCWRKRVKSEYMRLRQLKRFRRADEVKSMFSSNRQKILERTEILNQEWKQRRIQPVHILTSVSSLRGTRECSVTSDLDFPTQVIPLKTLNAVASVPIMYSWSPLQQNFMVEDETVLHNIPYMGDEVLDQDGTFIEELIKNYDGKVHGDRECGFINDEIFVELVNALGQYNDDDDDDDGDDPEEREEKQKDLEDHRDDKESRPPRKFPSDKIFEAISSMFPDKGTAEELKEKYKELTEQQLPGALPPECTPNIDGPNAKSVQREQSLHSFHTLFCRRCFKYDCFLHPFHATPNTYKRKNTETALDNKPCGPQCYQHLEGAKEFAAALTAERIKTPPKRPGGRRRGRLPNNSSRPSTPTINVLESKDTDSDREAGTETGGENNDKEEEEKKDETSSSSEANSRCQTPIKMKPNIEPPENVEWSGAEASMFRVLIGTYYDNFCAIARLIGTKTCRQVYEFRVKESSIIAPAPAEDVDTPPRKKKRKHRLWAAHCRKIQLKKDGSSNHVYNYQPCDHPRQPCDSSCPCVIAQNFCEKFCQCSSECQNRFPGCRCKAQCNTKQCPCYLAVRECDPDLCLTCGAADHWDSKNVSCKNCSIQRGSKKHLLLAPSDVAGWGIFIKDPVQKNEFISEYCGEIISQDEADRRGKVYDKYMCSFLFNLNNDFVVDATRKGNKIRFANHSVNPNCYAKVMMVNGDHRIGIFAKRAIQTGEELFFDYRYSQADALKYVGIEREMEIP
# Sequence of EZH2 Complex (O75530 whole entry partner): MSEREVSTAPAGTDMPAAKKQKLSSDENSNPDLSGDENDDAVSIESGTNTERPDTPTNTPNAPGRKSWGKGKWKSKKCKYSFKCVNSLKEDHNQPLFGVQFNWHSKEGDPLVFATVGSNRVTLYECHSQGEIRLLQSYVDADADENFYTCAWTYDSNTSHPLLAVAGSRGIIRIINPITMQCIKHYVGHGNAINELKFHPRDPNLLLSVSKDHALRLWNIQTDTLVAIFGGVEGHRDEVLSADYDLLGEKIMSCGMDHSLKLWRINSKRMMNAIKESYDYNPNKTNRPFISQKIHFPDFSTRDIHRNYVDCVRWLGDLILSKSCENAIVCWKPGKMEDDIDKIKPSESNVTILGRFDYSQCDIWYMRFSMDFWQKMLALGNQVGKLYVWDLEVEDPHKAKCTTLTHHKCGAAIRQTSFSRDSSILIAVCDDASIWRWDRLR
# Sequence of EZH2 Complex (Q15022 whole entry partner): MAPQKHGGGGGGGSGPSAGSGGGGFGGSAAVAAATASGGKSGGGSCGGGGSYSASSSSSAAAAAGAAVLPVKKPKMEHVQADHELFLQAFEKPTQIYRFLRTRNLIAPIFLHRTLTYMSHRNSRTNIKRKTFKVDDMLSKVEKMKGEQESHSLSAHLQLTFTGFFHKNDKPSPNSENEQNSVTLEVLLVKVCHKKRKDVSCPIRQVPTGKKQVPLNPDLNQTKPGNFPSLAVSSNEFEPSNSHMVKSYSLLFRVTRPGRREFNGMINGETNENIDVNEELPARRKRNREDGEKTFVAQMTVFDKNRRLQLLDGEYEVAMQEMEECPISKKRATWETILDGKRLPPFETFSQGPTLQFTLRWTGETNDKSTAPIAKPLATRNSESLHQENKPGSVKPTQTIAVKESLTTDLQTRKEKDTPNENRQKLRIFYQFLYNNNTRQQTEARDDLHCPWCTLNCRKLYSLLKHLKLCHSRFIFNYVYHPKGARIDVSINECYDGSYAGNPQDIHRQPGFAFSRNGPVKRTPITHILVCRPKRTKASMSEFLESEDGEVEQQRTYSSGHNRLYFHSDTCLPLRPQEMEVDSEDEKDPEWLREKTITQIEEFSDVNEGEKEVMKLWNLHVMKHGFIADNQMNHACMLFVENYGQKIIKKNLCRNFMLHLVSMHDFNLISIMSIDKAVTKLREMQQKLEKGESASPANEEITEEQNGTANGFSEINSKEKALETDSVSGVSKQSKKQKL
# Sequence of EZH2 Complex (Q09028 whole entry partner): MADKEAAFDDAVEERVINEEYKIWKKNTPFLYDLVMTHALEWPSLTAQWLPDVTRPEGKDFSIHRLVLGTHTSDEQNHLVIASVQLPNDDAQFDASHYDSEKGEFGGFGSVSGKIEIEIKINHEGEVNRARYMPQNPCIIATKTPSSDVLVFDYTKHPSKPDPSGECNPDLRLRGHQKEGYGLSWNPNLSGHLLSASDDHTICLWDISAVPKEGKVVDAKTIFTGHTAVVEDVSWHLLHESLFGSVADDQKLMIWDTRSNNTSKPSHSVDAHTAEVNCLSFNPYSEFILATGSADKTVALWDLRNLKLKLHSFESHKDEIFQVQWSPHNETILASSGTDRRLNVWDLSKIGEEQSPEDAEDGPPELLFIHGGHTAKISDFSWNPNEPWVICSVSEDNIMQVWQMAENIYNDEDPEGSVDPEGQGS
# Sequence of EZH2 Complex (Q6ZN18 whole entry partner): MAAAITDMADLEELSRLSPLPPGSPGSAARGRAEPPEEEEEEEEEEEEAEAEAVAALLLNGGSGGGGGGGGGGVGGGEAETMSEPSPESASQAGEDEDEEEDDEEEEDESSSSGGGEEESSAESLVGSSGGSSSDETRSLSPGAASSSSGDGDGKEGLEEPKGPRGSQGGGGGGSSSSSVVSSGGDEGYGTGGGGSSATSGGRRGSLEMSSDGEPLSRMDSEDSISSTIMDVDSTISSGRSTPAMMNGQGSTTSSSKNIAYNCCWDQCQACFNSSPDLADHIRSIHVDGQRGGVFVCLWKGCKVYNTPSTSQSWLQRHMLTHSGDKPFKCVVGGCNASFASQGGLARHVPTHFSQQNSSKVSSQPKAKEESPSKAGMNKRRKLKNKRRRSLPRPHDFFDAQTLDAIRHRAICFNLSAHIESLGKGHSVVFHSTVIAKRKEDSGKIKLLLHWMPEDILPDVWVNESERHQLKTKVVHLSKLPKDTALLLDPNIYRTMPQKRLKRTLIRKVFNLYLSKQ
# Experimental: as §1
# PRDM9 = PRDM9 (Homo sapiens, UniProt Q9NQV7); assay: Methyltransferase inhibition panel: PRDM9; type: biochemical
# Sequence of PRDM9 (Q9NQV7 whole entry): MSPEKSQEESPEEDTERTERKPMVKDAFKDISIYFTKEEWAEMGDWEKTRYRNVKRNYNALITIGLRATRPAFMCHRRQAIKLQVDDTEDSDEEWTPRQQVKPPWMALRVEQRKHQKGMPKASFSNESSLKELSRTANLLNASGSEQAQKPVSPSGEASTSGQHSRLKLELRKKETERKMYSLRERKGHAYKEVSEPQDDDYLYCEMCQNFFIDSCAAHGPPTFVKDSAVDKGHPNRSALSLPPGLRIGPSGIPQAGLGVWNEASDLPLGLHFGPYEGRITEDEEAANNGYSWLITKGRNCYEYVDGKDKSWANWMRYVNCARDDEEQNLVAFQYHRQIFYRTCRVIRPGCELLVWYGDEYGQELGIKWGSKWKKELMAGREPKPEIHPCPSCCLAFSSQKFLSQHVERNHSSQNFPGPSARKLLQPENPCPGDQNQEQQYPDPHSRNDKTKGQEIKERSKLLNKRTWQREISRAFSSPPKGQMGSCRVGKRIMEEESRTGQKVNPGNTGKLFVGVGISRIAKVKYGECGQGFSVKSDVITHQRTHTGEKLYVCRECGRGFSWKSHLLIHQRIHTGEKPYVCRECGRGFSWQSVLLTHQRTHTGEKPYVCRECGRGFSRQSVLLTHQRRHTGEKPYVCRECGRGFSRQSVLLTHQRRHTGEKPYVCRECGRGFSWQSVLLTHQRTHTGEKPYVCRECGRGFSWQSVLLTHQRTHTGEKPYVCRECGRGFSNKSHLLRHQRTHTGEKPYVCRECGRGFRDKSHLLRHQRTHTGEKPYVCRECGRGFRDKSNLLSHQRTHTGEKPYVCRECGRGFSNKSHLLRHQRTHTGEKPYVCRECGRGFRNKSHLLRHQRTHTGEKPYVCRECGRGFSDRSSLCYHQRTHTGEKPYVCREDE
# Experimental: as §1
# PRMT3 = PRMT3 (Homo sapiens, UniProt O60678); assay: Methyltransferase inhibition panel: PRMT3; type: biochemical
# Sequence of PRMT3 (O60678 whole entry): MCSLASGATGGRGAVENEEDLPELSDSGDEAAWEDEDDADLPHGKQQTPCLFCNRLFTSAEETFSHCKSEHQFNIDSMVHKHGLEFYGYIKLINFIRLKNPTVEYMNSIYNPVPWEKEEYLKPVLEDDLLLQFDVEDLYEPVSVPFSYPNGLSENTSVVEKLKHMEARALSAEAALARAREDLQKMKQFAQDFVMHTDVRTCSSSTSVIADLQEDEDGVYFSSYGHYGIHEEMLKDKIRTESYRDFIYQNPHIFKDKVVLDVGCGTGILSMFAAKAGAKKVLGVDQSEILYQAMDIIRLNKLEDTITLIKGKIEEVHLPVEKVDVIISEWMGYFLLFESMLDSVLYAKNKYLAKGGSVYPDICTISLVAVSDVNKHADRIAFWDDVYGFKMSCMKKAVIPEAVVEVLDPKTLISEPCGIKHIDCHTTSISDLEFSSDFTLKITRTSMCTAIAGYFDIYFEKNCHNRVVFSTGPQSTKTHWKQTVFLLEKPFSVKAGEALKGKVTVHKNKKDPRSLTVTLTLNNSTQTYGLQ
# Experimental: as §1
# Delivery to the brain = conditions: in vivo
# NSD3 = target: T2, NSD3 (Homo sapiens, UniProt Q9BZ95); assay: Methyltransferase inhibition panel: NSD3; type: biochemical
# T2 sequence (Q9BZ95 1-1437): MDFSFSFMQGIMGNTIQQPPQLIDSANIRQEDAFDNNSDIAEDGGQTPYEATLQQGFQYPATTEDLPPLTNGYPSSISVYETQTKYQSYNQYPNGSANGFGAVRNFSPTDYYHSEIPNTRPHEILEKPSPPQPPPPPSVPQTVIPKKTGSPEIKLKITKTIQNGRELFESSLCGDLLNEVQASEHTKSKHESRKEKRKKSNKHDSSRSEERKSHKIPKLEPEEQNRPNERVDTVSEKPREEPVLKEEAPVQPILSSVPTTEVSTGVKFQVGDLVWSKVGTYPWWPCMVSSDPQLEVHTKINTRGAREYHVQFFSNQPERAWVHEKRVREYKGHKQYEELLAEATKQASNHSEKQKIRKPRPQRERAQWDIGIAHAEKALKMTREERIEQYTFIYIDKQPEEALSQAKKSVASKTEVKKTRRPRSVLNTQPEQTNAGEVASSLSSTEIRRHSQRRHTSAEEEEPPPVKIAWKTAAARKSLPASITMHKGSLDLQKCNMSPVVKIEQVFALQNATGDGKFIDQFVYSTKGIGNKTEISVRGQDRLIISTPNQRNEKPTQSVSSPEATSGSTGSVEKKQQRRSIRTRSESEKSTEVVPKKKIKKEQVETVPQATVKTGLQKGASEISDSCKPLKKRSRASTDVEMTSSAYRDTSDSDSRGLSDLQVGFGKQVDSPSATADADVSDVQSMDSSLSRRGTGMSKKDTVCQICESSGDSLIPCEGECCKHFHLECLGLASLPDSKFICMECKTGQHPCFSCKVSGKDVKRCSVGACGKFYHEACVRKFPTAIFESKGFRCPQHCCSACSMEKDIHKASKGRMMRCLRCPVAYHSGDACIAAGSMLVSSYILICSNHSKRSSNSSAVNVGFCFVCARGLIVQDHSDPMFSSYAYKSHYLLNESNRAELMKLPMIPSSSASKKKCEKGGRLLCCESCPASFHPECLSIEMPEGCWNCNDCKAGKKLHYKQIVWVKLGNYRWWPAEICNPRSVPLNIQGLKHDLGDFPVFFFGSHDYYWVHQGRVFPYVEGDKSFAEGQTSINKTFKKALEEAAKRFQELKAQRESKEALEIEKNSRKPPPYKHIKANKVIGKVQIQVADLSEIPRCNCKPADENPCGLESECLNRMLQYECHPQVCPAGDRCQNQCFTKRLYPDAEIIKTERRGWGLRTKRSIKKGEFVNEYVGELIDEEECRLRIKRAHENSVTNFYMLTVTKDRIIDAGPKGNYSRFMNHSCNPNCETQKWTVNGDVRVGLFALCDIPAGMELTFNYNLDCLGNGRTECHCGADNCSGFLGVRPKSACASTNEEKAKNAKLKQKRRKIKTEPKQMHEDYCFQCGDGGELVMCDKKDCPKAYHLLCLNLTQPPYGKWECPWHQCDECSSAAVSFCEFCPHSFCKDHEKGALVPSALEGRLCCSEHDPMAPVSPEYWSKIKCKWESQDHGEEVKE
# Experimental: as §1
# [1] = read-out: Enzyme % Activity (relative to DMSO controls) Data 1
# [2] = read-out: Enzyme % Activity (relative to DMSO controls) Data 2
# [3] = 18-month old mice, cingulate cortex (cc) and hippocampus, vs DMSO
# [4] = old (18-month-old) mice, 10 mg/kg i.p.
# [5] = NT1721 20 μM, substrate Nucleosomes 0.05 mg/mL
smiles,measurement,setting,value
"CN1C(=O)[C@@]23C[C@](C)(C#N)[C@H](c4ccc5c(c4)OCO5)N2C(=O)[C@]1(C)SS3 (racemic) [ETP69, Rac-(3S,6S,7S,8aS)-6-(benzo[d][1,3]dioxol-5-yl)-2,3,7-trimethyl-1,4-dioxohexahydro-6H-3,8a-epidithiopyrrolo[1,2-a]pyrazine-7-carbonitrile]",remaining activity at 20 µM,SET8; [1],92.3%
same,remaining activity at 20 µM,SET8; [2],92.6%
same,remaining activity at 20 µM,PRMT4; [1],115%
same,remaining activity at 20 µM,PRMT4; [2],114%
same,dendritic spines,dendritic spines; [3],increase
same,thin spines,dendritic spines; [3],increase
same,number of dendritic spines,"dendritic spines; Example 4 mice, cingulate cortex and hippocampus, vs DMSO",significantly increased
same,mushroom-to-total spine ratio,dendritic spines; [4],lower
same,thin-to-total spine ratio,dendritic spines; [4],higher
same,increase in the number of dendritic spines,"dendritic spines; old (18-month-old) wildtype and neurodegenerative mice, hippocampus and cerebral cortex, 10 mg/kg i.p., vs DMSO control",1.2 fold
same,Enzyme % Activity (relative to DMSO controls) Data 1,EZH2 Complex,98.37%
same,Enzyme % Activity (relative to DMSO controls) Data 2,EZH2 Complex,97.85%
same,remaining activity at 20 µM,PRDM9; [1],46.2%
same,remaining activity at 20 µM,PRDM9; [2],47.1%
same,inhibition relative to DMSO controls,PRDM9; summary of Table 1,at least 7500
same,remaining activity at 20 µM,PRMT3; [1],94%
same,remaining activity at 20 µM,PRMT3; [2],95%
same,delivery to the brain,Delivery to the brain,good delivery to the brain
same,Enzyme % Activity (relative to DMSO controls) Data 1,NSD3; [5],10.33%
same,Enzyme % Activity (relative to DMSO controls) Data 2,NSD3; [5],10.21%
same,inhibition relative to DMSO controls,NSD3; summary of Table 1,at least 7500
